Reference: US8278086B2, “Enhancement of vanadium-containing phosphatase inhibitors” (Roche Diagnostics Operations, Inc., priority 2007, dated 2012)

Legend:
[1] = tested on: phosphatases in insect cell (SF9) lysate; test: Inhibition of phosphatases in insect cell lysate; type: biochemical; conditions: 1 mM orthovanadate (alone or with 27 mM mannitol), FIG. 4
Experimental: 270 mg insect cells (SF9) were collected, washed 3 times with 50 mM Hepes, 50 mM NaCl pH 7.0 and lysed using 2.5 ml M-Per (Pierce) for 10 min. After centrifugation the lysate was collected as the supernatant.
(§1) Subsequently, an aliquot of 10 μl was transferred from each mixture into a well of a microwell plate. 5 μl of a solution of a test peptide (R-R-L-I-E-D-A-E-pY-A-A-R-G (SEQ ID NO: 1); 1 mM in water) and 10 μl of a buffer containing 0.1 mM CaCl2, 50 mM Tris pH 7.0 were added to each well and incubated for 30 min at 37° C. Free phosphate resulting from the enzymatic hydrolysis was then detected via addition of 100 μl of a 1 M HCl solution additionally containing 0.034% [w/v] malachite green, 10 mM sodium molybdate and 3.4% [v/v] ethanol. The detection was performed for 10 min at RT while constantly agitating the microwell plate. Relative concentrations of free phosphate were detected following the determination of the extinction (620 nm) of each reaction well.

[2] = tested on: phosphatase; conditions: in the presence of complex-forming reagents like EDTA; cited from earlier work
[3] = tested on: phosphatases in COS7 cell lysate; test: Inhibition of phosphatases in COS7 cell lysate; type: biochemical; conditions: 1 mM orthovanadate (alone or with 27 mM mannitol), FIG. 5
Experimental: COS7 cells were collected, washed 3 times with 50 mM Hepes, 50 mM NaCl pH 7.0 and lysed using 5 ml M-Per (Pierce) for 10 min. After centrifugation the lysate was collected as the supernatant.
as §1, with “to” for “into a well of”, “1M” for “1 M”, “3.4” for “3.4%”

In the case of `[O]=[V]([O-])([O-])[O-]` [Na3VO4, orthovanadate], the “phosphatase activity (residual)” value [1] is listed as 14%, the “factor by which the phosphatase inhibiting effect is reduced” value [2] is listed as “about 1,000” and the “phosphatase activity (residual)” value [3] is listed as 52%.
